Data: patent US9821173B2, “Anti-cancer agents and methods of use” (Case Western Reserve University, priority 2013, dated 2017)

Key:
Experiment in all cases: Kinase inhibition screening (Luceome)
Type in all cases: biochemical
Conditions in all cases: 10 μM
[1] = biological target: T1, AKT2 (Homo sapiens, UniProt P31751)
T1 construct: purchased Luceome Biotechnologies (Tucson, Ariz.)
Description: (§1) It is well established that dysfunctional and unregulated kinase activity plays significant roles in cancer initiation and progression. […] Inspection of the data provides several interesting observations. […] These inhibitory effects at this concentration are consistent with their measured IC50 values that are also in the μM range (Table 1). In addition, several kinases display overlapping inhibitory responses to both gold(I) compounds. Many of these are of particular interest since they are involved in cancer initiation and/or progression. For example, the Aurora kinase family members, Aurora A and Aurora B, as well as the MARK2 and MARK3 kinases function during mitosis to regulate cell division. These kinases are important therapeutic targets as their activities are often deregulated in many types of cancers. Other kinases such as RPS6KA3 and MLK3 are involved in the MAP kinase and JNK pathways which are also important in cancer progression.

[2] = biological target: T2, AMPK-α1 (Homo sapiens, UniProt Q13131)
T2 construct: purchased Luceome Biotechnologies (Tucson, Ariz.)
Description: as §1

[3] = biological target: T3, AURKA (Homo sapiens, UniProt O14965)
T3 construct: purchased Luceome Biotechnologies (Tucson, Ariz.)
Description: as §1

[4] = biological target: T4, BLK (Homo sapiens, UniProt P51451)
T4 construct: purchased Luceome Biotechnologies (Tucson, Ariz.)
Description: as §1

[5] = biological target: T5, CAMK1 (Homo sapiens, UniProt Q14012)
T5 construct: purchased Luceome Biotechnologies (Tucson, Ariz.)
Description: as §1

[6] = biological target: T6, CAMK1D (Homo sapiens, UniProt Q8IU85)
T6 construct: purchased Luceome Biotechnologies (Tucson, Ariz.)
Description: as §1

[7] = biological target: T7, CAMK2D (Homo sapiens, UniProt Q13557)
T7 construct: purchased Luceome Biotechnologies (Tucson, Ariz.)
Description: as §1

[8] = biological target: T8, CAMKK1 (Homo sapiens, UniProt Q8N5S9)
T8 construct: purchased Luceome Biotechnologies (Tucson, Ariz.)
Description: as §1

[9] = biological target: T9, CAMKK2 (Homo sapiens, UniProt Q96RR4)
T9 construct: purchased Luceome Biotechnologies (Tucson, Ariz.)
Description: as §1

[10] = biological target: T10, CHEK1 (Homo sapiens, UniProt O14757)
T10 construct: purchased Luceome Biotechnologies (Tucson, Ariz.)
Description: as §1

[11] = biological target: T11, CLK1 (Homo sapiens, UniProt P49759)
T11 construct: purchased Luceome Biotechnologies (Tucson, Ariz.)
Description: as §1

[12] = biological target: T12, CLK2 (Homo sapiens, UniProt P49760)
T12 construct: purchased Luceome Biotechnologies (Tucson, Ariz.)
Description: as §1

[13] = biological target: T13, DDR2 (Homo sapiens, UniProt Q16832)
T13 construct: purchased Luceome Biotechnologies (Tucson, Ariz.)
Description: as §1

[14] = biological target: T14, FGFR2 (Homo sapiens, UniProt P21802)
T14 construct: purchased Luceome Biotechnologies (Tucson, Ariz.)
Description: as §1

[15] = biological target: T15, FLT1 (Homo sapiens, UniProt P17948)
T15 construct: purchased Luceome Biotechnologies (Tucson, Ariz.)
Description: as §1

[16] = biological target: T16, MARK3 (Homo sapiens, UniProt P27448)
T16 construct: purchased Luceome Biotechnologies (Tucson, Ariz.)
Description: as §1

[17] = biological target: T17, MET (Homo sapiens, UniProt P08581)
T17 construct: purchased Luceome Biotechnologies (Tucson, Ariz.)
Description: as §1

[18] = biological target: T18, MLK1 (Homo sapiens, UniProt P80192)
T18 construct: purchased Luceome Biotechnologies (Tucson, Ariz.)
Description: as §1

[19] = biological target: T19, MLK3 (Homo sapiens, UniProt Q16584)
T19 construct: purchased Luceome Biotechnologies (Tucson, Ariz.)
Description: as §1

[20] = biological target: T20, MST2 (Homo sapiens, UniProt Q13188)
T20 construct: purchased Luceome Biotechnologies (Tucson, Ariz.)
Description: as §1

[21] = biological target: T21, PDGFRB (Homo sapiens, UniProt P09619)
T21 construct: purchased Luceome Biotechnologies (Tucson, Ariz.)
Description: as §1

[22] = biological target: T22, PDK1 (Homo sapiens, UniProt O15530)
T22 construct: purchased Luceome Biotechnologies (Tucson, Ariz.)
Description: as §1

[23] = biological target: T23, PIM2 (Homo sapiens, UniProt Q9P1W9)
T23 construct: purchased Luceome Biotechnologies (Tucson, Ariz.)
Description: as §1

[24] = biological target: T24, PKAC-α (Homo sapiens, UniProt P17612)
T24 construct: purchased Luceome Biotechnologies (Tucson, Ariz.)
Description: as §1

[25] = biological target: T25, PKC-δ (Homo sapiens, UniProt Q05655)
T25 construct: purchased Luceome Biotechnologies (Tucson, Ariz.)
Description: as §1

[26] = biological target: T26, PKC-η (Homo sapiens, UniProt P24723)
T26 construct: purchased Luceome Biotechnologies (Tucson, Ariz.)
Description: as §1

[27] = biological target: T27, PKG1 (Homo sapiens, UniProt Q13976)
T27 construct: purchased Luceome Biotechnologies (Tucson, Ariz.)
Description: as §1

[28] = biological target: T28, RPS6KA3 (Homo sapiens, UniProt P51812)
T28 construct: purchased Luceome Biotechnologies (Tucson, Ariz.)
Description: as §1

[29] = biological target: T29, RPS6KA4 (Homo sapiens, UniProt O75676)
T29 construct: purchased Luceome Biotechnologies (Tucson, Ariz.)
Description: as §1

[30] = biological target: T30, RPS6KA5 (Homo sapiens, UniProt O75582)
T30 construct: purchased Luceome Biotechnologies (Tucson, Ariz.)
Description: as §1

[31] = biological target: T31, SNARK (Homo sapiens, UniProt Q9H093)
T31 construct: purchased Luceome Biotechnologies (Tucson, Ariz.)
Description: as §1

[32] = biological target: T32, SNF1LK (Homo sapiens, UniProt P57059)
T32 construct: purchased Luceome Biotechnologies (Tucson, Ariz.)
Description: as §1

[33] = biological target: T33, SNF1LK2 (Homo sapiens, UniProt Q9H0K1)
T33 construct: purchased Luceome Biotechnologies (Tucson, Ariz.)
Description: as §1

[34] = biological target: T34, SRC (Homo sapiens, UniProt P12931)
T34 construct: purchased Luceome Biotechnologies (Tucson, Ariz.)
Description: as §1

[35] = biological target: T35, SYK (Homo sapiens, UniProt P43405)
T35 construct: purchased Luceome Biotechnologies (Tucson, Ariz.)
Description: as §1

[36] = biological target: T36, TNK2 (Homo sapiens, UniProt Q07912)
T36 construct: purchased Luceome Biotechnologies (Tucson, Ariz.)
Description: as §1

[37] = biological target: T37, VEGFR2 (Homo sapiens, UniProt P35968)
T37 construct: purchased Luceome Biotechnologies (Tucson, Ariz.)
Description: as §1

[38] = biological target: T38, YES1 (Homo sapiens, UniProt P07947)
T38 construct: purchased Luceome Biotechnologies (Tucson, Ariz.)
Description: as §1

[39] = biological target: T39, YSK1 (Homo sapiens, UniProt O00506)
T39 construct: purchased Luceome Biotechnologies (Tucson, Ariz.)
Description: as §1

T10 sequence (O14757 whole entry): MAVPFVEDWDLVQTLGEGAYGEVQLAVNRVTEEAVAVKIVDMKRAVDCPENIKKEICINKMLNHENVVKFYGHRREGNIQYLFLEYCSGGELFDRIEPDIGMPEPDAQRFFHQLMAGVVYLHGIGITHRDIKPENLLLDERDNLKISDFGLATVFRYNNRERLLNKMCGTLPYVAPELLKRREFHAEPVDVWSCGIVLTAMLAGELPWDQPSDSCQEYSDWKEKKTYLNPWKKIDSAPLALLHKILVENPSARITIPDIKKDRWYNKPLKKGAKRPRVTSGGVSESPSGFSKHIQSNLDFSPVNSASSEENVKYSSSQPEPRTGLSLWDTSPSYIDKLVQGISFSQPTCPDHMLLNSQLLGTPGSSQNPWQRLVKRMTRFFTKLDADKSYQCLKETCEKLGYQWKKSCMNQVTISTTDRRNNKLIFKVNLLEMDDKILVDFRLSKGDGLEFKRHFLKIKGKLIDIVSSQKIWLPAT
T18 sequence (P80192 whole entry): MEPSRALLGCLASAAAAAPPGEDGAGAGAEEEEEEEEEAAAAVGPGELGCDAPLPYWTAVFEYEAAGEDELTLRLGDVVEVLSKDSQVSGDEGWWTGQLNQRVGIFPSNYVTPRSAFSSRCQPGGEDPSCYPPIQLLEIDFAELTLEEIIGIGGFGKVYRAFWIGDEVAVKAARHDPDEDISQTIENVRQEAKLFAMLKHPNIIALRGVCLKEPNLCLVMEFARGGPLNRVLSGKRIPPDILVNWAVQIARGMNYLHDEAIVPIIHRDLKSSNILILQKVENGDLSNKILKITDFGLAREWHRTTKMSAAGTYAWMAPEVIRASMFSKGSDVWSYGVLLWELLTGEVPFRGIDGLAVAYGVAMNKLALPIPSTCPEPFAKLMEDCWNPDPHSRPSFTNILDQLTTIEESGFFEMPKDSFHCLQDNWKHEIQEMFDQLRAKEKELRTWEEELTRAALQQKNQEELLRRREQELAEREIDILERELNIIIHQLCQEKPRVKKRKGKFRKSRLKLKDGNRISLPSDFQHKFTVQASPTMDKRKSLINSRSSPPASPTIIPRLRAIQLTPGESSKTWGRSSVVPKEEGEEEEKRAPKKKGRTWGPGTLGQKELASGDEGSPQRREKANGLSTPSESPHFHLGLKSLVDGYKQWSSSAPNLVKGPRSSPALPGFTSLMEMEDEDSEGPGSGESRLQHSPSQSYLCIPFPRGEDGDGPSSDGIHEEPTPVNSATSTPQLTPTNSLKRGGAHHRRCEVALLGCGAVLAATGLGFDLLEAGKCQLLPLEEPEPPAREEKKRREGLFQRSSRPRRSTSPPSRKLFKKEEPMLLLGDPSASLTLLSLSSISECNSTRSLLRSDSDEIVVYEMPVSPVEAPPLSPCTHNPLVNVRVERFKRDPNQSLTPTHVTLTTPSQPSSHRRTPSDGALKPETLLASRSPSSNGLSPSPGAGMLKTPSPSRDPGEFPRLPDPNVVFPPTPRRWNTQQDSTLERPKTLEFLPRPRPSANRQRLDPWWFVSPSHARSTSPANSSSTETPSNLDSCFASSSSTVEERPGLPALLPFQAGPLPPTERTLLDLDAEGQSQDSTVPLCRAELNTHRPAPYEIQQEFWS
T3 sequence (O14965 whole entry): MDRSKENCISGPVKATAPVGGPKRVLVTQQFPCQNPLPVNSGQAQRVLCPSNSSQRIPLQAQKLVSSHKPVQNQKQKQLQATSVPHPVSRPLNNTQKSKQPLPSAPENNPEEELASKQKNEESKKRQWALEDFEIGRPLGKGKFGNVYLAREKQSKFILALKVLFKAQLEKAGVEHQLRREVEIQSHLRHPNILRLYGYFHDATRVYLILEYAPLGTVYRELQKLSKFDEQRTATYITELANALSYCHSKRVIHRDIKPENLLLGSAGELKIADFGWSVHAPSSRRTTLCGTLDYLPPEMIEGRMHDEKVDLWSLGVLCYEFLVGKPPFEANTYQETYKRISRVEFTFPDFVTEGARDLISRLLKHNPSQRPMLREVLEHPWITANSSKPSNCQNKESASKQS
T36 sequence (Q07912 whole entry): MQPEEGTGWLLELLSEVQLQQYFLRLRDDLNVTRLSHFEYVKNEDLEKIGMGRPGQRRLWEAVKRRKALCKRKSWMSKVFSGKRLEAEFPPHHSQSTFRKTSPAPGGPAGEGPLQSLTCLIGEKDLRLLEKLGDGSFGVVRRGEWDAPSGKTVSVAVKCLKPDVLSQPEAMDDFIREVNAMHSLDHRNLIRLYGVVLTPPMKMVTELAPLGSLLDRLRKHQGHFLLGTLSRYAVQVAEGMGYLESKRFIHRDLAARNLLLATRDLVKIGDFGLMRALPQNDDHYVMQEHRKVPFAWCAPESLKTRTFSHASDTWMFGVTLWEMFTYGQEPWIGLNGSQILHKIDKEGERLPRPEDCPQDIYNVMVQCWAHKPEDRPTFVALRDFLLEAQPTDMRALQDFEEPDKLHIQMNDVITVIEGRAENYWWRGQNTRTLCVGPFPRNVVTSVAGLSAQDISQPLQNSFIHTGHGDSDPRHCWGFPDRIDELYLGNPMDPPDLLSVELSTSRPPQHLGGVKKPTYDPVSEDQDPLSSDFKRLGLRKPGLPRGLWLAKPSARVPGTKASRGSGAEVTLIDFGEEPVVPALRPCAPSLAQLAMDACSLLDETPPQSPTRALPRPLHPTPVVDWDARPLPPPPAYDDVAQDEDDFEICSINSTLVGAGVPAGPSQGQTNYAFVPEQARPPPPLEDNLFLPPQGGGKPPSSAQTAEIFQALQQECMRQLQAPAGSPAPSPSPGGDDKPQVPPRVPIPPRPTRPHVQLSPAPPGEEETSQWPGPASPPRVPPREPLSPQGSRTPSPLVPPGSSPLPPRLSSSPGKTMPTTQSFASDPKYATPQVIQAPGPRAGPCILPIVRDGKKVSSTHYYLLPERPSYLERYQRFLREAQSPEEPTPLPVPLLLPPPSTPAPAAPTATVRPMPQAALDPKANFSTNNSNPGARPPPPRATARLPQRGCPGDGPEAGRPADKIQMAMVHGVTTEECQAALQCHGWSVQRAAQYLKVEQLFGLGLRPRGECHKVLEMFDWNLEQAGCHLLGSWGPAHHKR
T1 sequence (P31751 whole entry): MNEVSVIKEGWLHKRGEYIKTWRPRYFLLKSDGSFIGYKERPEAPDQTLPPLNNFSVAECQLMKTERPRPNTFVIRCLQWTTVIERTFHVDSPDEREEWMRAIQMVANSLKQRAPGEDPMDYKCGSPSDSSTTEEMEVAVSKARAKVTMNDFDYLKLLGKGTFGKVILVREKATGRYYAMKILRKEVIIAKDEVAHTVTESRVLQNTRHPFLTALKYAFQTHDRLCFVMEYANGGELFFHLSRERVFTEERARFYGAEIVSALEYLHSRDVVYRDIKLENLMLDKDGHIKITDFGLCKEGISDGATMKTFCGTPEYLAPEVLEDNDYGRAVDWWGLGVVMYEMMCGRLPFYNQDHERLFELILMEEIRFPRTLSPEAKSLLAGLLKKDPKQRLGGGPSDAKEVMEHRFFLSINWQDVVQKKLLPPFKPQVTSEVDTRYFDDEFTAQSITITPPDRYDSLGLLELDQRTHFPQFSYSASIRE
T27 sequence (Q13976 whole entry): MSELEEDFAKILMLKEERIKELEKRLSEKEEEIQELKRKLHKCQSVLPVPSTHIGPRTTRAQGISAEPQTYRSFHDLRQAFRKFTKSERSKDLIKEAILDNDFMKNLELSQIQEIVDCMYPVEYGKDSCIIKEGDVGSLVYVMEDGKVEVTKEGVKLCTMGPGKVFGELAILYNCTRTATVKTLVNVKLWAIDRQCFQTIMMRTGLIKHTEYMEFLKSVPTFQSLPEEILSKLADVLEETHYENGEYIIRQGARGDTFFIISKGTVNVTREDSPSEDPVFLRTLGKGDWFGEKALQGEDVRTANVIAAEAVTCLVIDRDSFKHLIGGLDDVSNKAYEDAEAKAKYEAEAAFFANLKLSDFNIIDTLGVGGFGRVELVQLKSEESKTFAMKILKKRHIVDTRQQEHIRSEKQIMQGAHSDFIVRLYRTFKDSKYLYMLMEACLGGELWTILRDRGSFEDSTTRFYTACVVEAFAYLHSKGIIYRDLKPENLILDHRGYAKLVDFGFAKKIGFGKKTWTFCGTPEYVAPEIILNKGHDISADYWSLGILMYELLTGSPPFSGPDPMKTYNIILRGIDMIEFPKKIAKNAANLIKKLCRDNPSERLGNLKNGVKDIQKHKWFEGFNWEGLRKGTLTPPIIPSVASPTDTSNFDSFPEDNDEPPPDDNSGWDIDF
T22 sequence (O15530 whole entry): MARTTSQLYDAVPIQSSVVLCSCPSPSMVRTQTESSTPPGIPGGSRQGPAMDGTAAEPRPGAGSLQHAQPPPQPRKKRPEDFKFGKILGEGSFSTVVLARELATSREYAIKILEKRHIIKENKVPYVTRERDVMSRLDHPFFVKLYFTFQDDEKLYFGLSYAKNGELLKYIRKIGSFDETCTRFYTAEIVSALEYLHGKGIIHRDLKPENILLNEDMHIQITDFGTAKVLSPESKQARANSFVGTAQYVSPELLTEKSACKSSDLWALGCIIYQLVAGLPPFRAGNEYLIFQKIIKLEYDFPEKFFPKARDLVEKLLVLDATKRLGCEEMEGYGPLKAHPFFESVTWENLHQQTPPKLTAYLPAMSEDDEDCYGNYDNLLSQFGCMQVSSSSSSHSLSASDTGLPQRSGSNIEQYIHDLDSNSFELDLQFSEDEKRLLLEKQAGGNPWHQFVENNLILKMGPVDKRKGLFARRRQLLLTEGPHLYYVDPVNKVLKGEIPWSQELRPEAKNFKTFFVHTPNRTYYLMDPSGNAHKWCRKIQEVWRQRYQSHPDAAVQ
T23 sequence (Q9P1W9 whole entry): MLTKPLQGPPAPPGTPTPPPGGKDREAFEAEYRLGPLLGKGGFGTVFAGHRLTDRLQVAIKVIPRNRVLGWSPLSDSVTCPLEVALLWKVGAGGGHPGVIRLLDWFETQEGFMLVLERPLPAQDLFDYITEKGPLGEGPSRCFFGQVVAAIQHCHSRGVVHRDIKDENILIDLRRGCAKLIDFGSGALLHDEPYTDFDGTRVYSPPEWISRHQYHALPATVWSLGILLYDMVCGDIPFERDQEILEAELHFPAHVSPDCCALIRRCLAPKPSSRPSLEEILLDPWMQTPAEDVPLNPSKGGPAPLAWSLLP

Row | SMILES | % Inhibition AKT2 [1] | % Inhibition AMPK-α1 [2] | % Inhibition AURKA [3] | % Inhibition BLK [4] | % Inhibition CAMK1 [5] | % Inhibition CAMK1D [6] | % Inhibition CAMK2D [7] | % Inhibition CAMKK1 [8] | % Inhibition CAMKK2 [9] | % Inhibition CHEK1 [10] | % Inhibition CLK1 [11] | % Inhibition CLK2 [12] | % Inhibition DDR2 [13] | % Inhibition FGFR2 [14] | % Inhibition FLT1 [15] | % Inhibition MARK3 [16] | % Inhibition MET [17] | % Inhibition MLK1 [18] | % Inhibition MLK3 [19] | % Inhibition MST2 [20] | also measured
1 | CC(C)(C)OC(=O)n1ccc2c[c]([Au-][P+](c3ccccc3)(c3ccccc3)c3ccccc3)ccc21 [Compound 3, 5-{Triphenylphosphine aurate(I)}-tert-butyl1H-indole-1-carboxylate] | 25.8% | 0% | 26.7% | 0% | 0% | 0% | 0% | 0% | 0% | 0% | 0% | 0% | 0% | 5.1% | 18.9% | 6.5% | 15.1% | 32.5% | 31.2% | 0% | % Inhibition PDGFRB [21]: 8.1%; % Inhibition PDK1 [22]: 17.4%; % Inhibition PIM2 [23]: 0%; % Inhibition PKAC-α [24]: 0%; % Inhibition PKC-δ [25]: 0%; % Inhibition PKC-η [26]: 3.2%; % Inhibition PKG1 [27]: 5.4%; % Inhibition RPS6KA3 [28]: 16.7%; % Inhibition RPS6KA4 [29]: 1.0%; % Inhibition RPS6KA5 [30]: 0%; % Inhibition SNARK [31]: 0%; % Inhibition SNF1LK [32]: 0%; % Inhibition SNF1LK2 [33]: 0%; % Inhibition SRC [34]: 14.3%; % Inhibition SYK [35]: 21.6%; % Inhibition TNK2 [36]: 0%; % Inhibition VEGFR2 [37]: 0%; % Inhibition YES1 [38]: 0%; % Inhibition YSK1 [39]: 0%
2 | CC(C)(C)OC(=O)n1ccc2c[c]([Au-][P+](C3CCCCC3)(C3CCCCC3)C3CCCCC3)ccc21 [Compound 4, 5-{Tricyclohexylphosphine aurate(I)}-tert-butyl1H-indole-1-carboxylate] | 33.6% | 0% | 41.7% | 0% | 0% | 0% | 0% | 0% | 7.9% | 0% | 0% | 0% | 0% | 0% | 9.4% | 34% | 23.3% | 42.2% | 43% | 0% | % Inhibition PDGFRB [21]: 15.2%; % Inhibition PDK1 [22]: 24.3%; % Inhibition PIM2 [23]: 8.7%; % Inhibition PKAC-α [24]: 12.4%; % Inhibition PKC-δ [25]: 3.8%; % Inhibition PKC-η [26]: 0%; % Inhibition PKG1 [27]: 3.2%; % Inhibition RPS6KA3 [28]: 34.9%; % Inhibition RPS6KA4 [29]: 21.8%; % Inhibition RPS6KA5 [30]: 5.0%; % Inhibition SNARK [31]: 39.5%; % Inhibition SNF1LK [32]: 40.6%; % Inhibition SNF1LK2 [33]: 32.9%; % Inhibition SRC [34]: 5.2%; % Inhibition SYK [35]: 40.7%; % Inhibition TNK2 [36]: 2.2%; % Inhibition VEGFR2 [37]: 5.8%; % Inhibition YES1 [38]: 31.7%; % Inhibition YSK1 [39]: 20.9%
